Laboratory results taken from patent US20240246916A1, “7-NITRO-8-HYDROXYQUINOLINE DERIVATIVES, PREPARATION METHOD THEREFORE AND MEDICAL USE THEREOF” (Jiangsu Yahong Meditech Co., Ltd., priority 2021, published 2024).
Converted amounts (≈) assume the structure as drawn. Where two headings read alike, the source gives them in different places.

Tests used:
Type in all cases: cell-based
[1] = test system: Endothelial cell line HUVEC; experiment: Inhibitory activity on cells, CellTiter-Glo viability, HUVEC; details: Homo sapiens, 72 hours treatment
Experimental: (§1) HUVEC (purchased from Allcells Biological Technology (Shanghai) Co., Ltd.); UM-UC-3 (ATCC); LNCaP (ATCC); RM-1 (purchased from Nanjing Cobioer Biosciences Co., Ltd.) (1) On the first day, the cells were seeded in a 96-well plate, and the previous medium was poured off. 5 mL of DPBS was added to wash the cells, and then removed by a pipette and discarded. Then, 1 mL of trypsin (0.25%) was added, and the plate was placed in a cell culture incubator at 37 °C, 5% CO2 for digestion, and taken out after about 2 to 5 minutes. New corresponding medium was added, and pipetted to resuspend the cells evenly, and the cells were then counted with an automated cell counter. Regarding HUVEC, the medium used was endothelial cell complete medium; regarding UM-UC-3, the medium used was 89 v % EMEM+10 v % fetal bovine serum+1 v % penicillin-streptomycin double anti-body; regarding LNcaP, the medium used was 89 v % RPM11640+10 v % fetal bovine serum+1 v % penicillin-streptomycin double anti-body; and regarding RM1, the medium used was 89 v % DMEM+10 v % fetal bovine serum+1 v % penicillin-streptomycin double anti-body. (2) HUVEC cells were seeded in columns 1 to 11 of a 96-well plate (Corning, Cat. No. 3610) at a density of 2000 cells per well in 100 μL of medium, and the medium free of cell was added to the wells of column 12. The other three types of cells were also seeded, wherein UM-UC-3 and RM-1 cells were seeded at a density of 3000 cells per well, and LNCap cells were seeded at a density of 5000 cells per well. Then, the plate was placed in an incubator at 37° C., 5% CO2 for 24 hours. (3) On the second day, the compounds of the present invention and the reference drug nitroxoline (obtained according to the preparation method disclosed in the prior art) were diluted in gradient (2.5 folds, started at 100 μmol) to obtain 8 dose points (there were a total of 8 columns of wells; the first column of wells had the highest concentration, the concentration decreased in turn, and the last column of wells had the lowest concentration). 10 μL of the compound diluted in gradient was added to the 100 μL of cells in column 1 to column 10 with an 8-channel pipette. 10 μL of the corresponding medium containing 0.33 v % DMSO was added to column 11 and column 12. The plate was incubated in an incubator at 37° C., 5% CO2 for 72 hours (note: column 11 was used as MAX well with cells and no compounds; and column 12 was used as MIN well with no cells and no compounds). (4) After treating with the compounds of the present invention for 72 hours, the cell viability detection reagents in the above CellTiter-Glo® assay kit were added to the 96-well plate at 50 μL per well according to the instructions. The plate was shaken on a shaker in the dark for 5 to 10 minutes, and then the cell activity was determined by a multifunctional microplate reader. Finally, the growth inhibition of the compounds of the present invention on the cells was plotted by XLFIT 5.3 software, and the IC50 values of the compounds of the present invention were calculated.

[2] = test system: Staphylococcus aureus (methicillin-resistant and sensitive clinical isolates; ATCC29213); experiment: MIC by micro broth dilution (CLSI), Staphylococcus aureus
Outline: (§2)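 MICs against clinical resistant and sensitive isolates and reference strains determined in CAMHB following CLSI microdilution, incubating 20 h at 35±2 °C in air. Final inoculum 10^5 CFU/mL; DMSO-dissolved compound tested over 0.06–128 mg/L; CLSI M100 (2019) criteria applied.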

[3] = test system: Acinetobacter baumannii (carbapenem-resistant clinical isolates; ATCC19606); experiment: MIC by micro broth dilution (CLSI), Acinetobacter baumannii; details: Acinetobacter baumannii; for MIC50 / MIC90: ATCC19606
Outline: as §2

[4] = test system: Prostate cancer cell line LNcaP; experiment: Inhibitory activity on cancer cells, CellTiter-Glo viability, LNcaP; details: Homo sapiens, 72 hours treatment
Experimental: as §1

[5] = test system: Bladder cancer cell line UM-UC-3; experiment: Inhibitory activity on cancer cells, CellTiter-Glo viability, UM-UC-3; details: Homo sapiens, UMUC3, 72 hours treatment
Experimental: as §1

[6] = test system: Escherichia coli (carbapenem-resistant clinical isolate; ATCC25922); experiment: MIC by micro broth dilution (CLSI), Escherichia coli; details: for MIC50 / MIC90 / MIC: Escherichia coli
Outline: as §2

[7] = Clinical strain, read-out: MIC50
[8] = Clinical strain, read-out: MIC90
[9] = Standard strain ATCC29213, read-out: MIC
[10] = Standard strain ATCC19606, read-out: MIC
[11] = ATCC25922, Clinical strain, read-out: MIC50
[12] = ATCC25922, Clinical strain, read-out: MIC90
[13] = Standard strain ATCC25922, read-out: MIC
[14] = clinical strains, micro broth dilution, CAMHB, 35±2° C., 20 hours, read-out: MIC50 Staphylococcus aureus Clinical strain
[15] = clinical strains, micro broth dilution, CAMHB, 35±2° C., 20 hours, read-out: MIC90 Staphylococcus aureus Clinical strain
[16] = standard strain ATCC29213, micro broth dilution, CAMHB, 35±2° C., 20 hours, read-out: MIC Staphylococcus aureus Standard strain ATCC29213
[17] = clinical strains, micro broth dilution, CAMHB, 35±2° C., 20 hours, read-out: MIC50 Acinetobacter baumannii Clinical strain
[18] = clinical strains, micro broth dilution, CAMHB, 35±2° C., 20 hours, read-out: MIC90 Acinetobacter baumannii Clinical strain
[19] = standard strain ATCC19606, micro broth dilution, CAMHB, 35±2° C., 20 hours, read-out: MIC Acinetobacter baumannii Standard strain ATCC19606
[20] = clinical strains, micro broth dilution, CAMHB, 35±2° C., 20 hours, read-out: MIC50 Escherichia coli Clinical strain
[21] = clinical strains, micro broth dilution, CAMHB, 35±2° C., 20 hours, read-out: MIC90 Escherichia coli Clinical strain
[22] = standard strain ATCC25922, micro broth dilution, CAMHB, 35±2° C., 20 hours, read-out: MIC Escherichia coli Standard strain ATCC25922

| SMILES | IC50 [1] [µM] | MIC50 [2, 7] [µg/mL] | MIC90 [2, 8] [µg/mL] | MIC [2, 9] [µg/mL] | MIC50 [3, 7] [µg/mL] | MIC90 [3, 8] [µg/mL] | MIC [3, 10] [µg/mL] | IC50 [4] [µM] | MIC50 [6, 11] [µg/mL] | MIC90 [6, 12] [µg/mL] | MIC [6, 13] [µg/mL] | MIC50 [2, 14] [µg/mL] | MIC90 [2, 15] [µg/mL] | MIC [2, 16] [µg/mL] | MIC50 [3, 17] [µg/mL] | MIC90 [3, 18] [µg/mL] | MIC [3, 19] [µg/mL] | MIC50 [6, 20] [µg/mL] | MIC90 [6, 21] [µg/mL] | MIC [6, 22] [µg/mL] | also measured |
| --- | --- | --- | --- | --- | --- | --- | --- | --- | --- | --- | --- | --- | --- | --- | --- | --- | --- | --- | --- | --- | --- |
| O=[N+]([O-])c1ccc2c(Cl)ccnc2c1O [Example 12, 4-Chloro-7-nitroquinolin-8-ol] | 7.5 | 2 (≈ 8.9 µM) | 2 (≈ 8.9 µM) | 2 (≈ 8.9 µM) | 2 (≈ 8.9 µM) | 4 (≈ 17.8 µM) | 4 (≈ 17.8 µM) | 4.1 | 4 (≈ 17.8 µM) | 4 (≈ 17.8 µM) | 4 (≈ 17.8 µM) | – | – | – | – | – | – | – | – | – | IC50 [5]: 7.5 µM; inhibitory effect against Escherichia coli compared with the reference drug nitroxoline ([6]; MIC comparison): comparable to that of the reference drug nitroxoline |
| O=[N+]([O-])c1ccc2c(N3CCCC3)ccnc2c1O [Example 13, 7-Nitro-4-(pyrrolidin-1-yl)quinolin-8-ol] | > 50 | > 128 | > 128 | > 128 | > 128 | > 128 | > 128 | 35.4 | > 128 | > 128 | > 128 | – | – | – | – | – | – | – | – | – | IC50 [5]: 38 µM |
| O=[N+]([O-])c1ccc2c(N3CCOCC3)ccnc2c1O [Example 14, 4-Morpholino-7-nitroquinolin-8-ol] | 10.9 | 128 (≈ 465 µM) | 128 (≈ 465 µM) | 128 (≈ 465 µM) | 128 (≈ 465 µM) | > 128 | > 128 | 8.7 | 128 (≈ 465 µM) | 128 (≈ 465 µM) | > 128 | – | – | – | – | – | – | – | – | – | IC50 [5]: 6.1 µM |
| O=[N+]([O-])c1ccc2c(NC3COC3)ccnc2c1O [Example 19, 7-Nitro-4-(3-oxetanylamino)quinolin-8-ol] | > 100 | – | – | – | – | – | – | > 100 | – | – | – | – | – | – | – | – | – | – | – | – | IC50 [5]: > 100 µM |
| O=[N+]([O-])c1cc(Cl)c2c(N3CCCC(F)(F)C3)ccnc2c1O [Example 118, 5-chloro-4-(3,3-difluoropiperidin-1-yl)-7-nitroquinolin-8-ol] | – | 8 (≈ 23.3 µM) | 128 (≈ 372 µM) | 128 (≈ 372 µM) | 128 (≈ 372 µM) | > 128 | > 128 | – | > 128 | > 128 | > 128 | – | – | – | – | – | – | – | – | – | – |
| O=[N+]([O-])c1cc(Cl)c2c(N3CCCC(F)C3)ccnc2c1O (stereo not shown) [Example 119, 5-chloro-4-(3-fluoropiperidin-1-yl)-7-nitroquinolin-8-ol] | – | 16 (≈ 49.1 µM) | 128 (≈ 393 µM) | 128 (≈ 393 µM) | 128 (≈ 393 µM) | > 128 | > 128 | – | > 128 | > 128 | > 128 | – | – | – | – | – | – | – | – | – | – |
| [2H]c1ccnc2c(O)c([N+](=O)[O-])cc(Cl)c12 [Example 120, 5-chloro-7-nitroquinolin-4-d-8-ol] | – | 4 (≈ 17.7 µM) | 16 (≈ 70.9 µM) | 8 (≈ 35.5 µM) | 8 (≈ 35.5 µM) | 16 (≈ 70.9 µM) | 8 (≈ 35.5 µM) | – | 32 (≈ 142 µM) | 32 (≈ 142 µM) | 16 (≈ 70.9 µM) | – | – | – | – | – | – | – | – | – | – |
| O=[N+]([O-])c1cc(Br)c2cccnc2c1O [Example 121, 5-bromo-7-nitroquinolin-8-ol] | – | – | – | – | – | – | – | – | – | – | – | 4 (≈ 14.9 µM) | 16 (≈ 59.5 µM) | 8 (≈ 29.7 µM) | 16 (≈ 59.5 µM) | 32 (≈ 119 µM) | 8 (≈ 29.7 µM) | 128 (≈ 476 µM) | 128 (≈ 476 µM) | 16 (≈ 59.5 µM) | – |
| O=[N+]([O-])c1c(F)cc2cccnc2c1O [Example 122, 6-fluoro-7-nitroquinolin-8-ol] | – | – | – | – | – | – | – | – | – | – | – | 64 (≈ 307 µM) | 64 (≈ 307 µM) | 128 (≈ 615 µM) | 64 (≈ 307 µM) | 64 (≈ 307 µM) | 64 (≈ 307 µM) | 64 (≈ 307 µM) | 64 (≈ 307 µM) | 64 (≈ 307 µM) | – |
| O=[N+]([O-])c1c(Cl)c(F)c2cccnc2c1O [Example 123, 6-chloro-5-fluoro-7-nitroquinolin-8-ol] | – | – | – | – | – | – | – | – | – | – | – | 2 (≈ 8.24 µM) | 4 (≈ 16.5 µM) | 4 (≈ 16.5 µM) | 4 (≈ 16.5 µM) | 8 (≈ 33 µM) | 4 (≈ 16.5 µM) | 16 (≈ 66 µM) | 32 (≈ 132 µM) | 8 (≈ 33 µM) | – |
| O=[N+]([O-])c1c(Br)c(F)c2cccnc2c1O [Example 124, 6-bromo-5-fluoro-7-nitroquinolin-8-ol] | – | – | – | – | – | – | – | – | – | – | – | 4 (≈ 13.9 µM) | 4 (≈ 13.9 µM) | 4 (≈ 13.9 µM) | 4 (≈ 13.9 µM) | 8 (≈ 27.9 µM) | 8 (≈ 27.9 µM) | 16 (≈ 55.7 µM) | 64 (≈ 223 µM) | 8 (≈ 27.9 µM) | – |
| O=[N+]([O-])c1c(F)c(F)c2cccnc2c1O [Example 125, 5,6-difluoro-7-nitroquinolin-8-ol] | – | – | – | – | – | – | – | – | – | – | – | 8 (≈ 35.4 µM) | 8 (≈ 35.4 µM) | 8 (≈ 35.4 µM) | 8 (≈ 35.4 µM) | 16 (≈ 70.8 µM) | 8 (≈ 35.4 µM) | 16 (≈ 70.8 µM) | 16 (≈ 70.8 µM) | 8 (≈ 35.4 µM) | – |
